According to patent publication US8080377B2, “Method for confirming the exposure on chrysene” (Korea Institute of Science and Technology, priority 2008, dated 2011):

Test system: HepG2 cells
Experiment: 44 k whole human genome oligo microarray gene expression, cells treated with chrysene at IC20 for 48 hours (Cy5) vs untreated control (Cy3)
Type: cell-based
Description: HepG2 cells were distributed on a 100 mm dish at the concentration of 6×10^6 cell/ml, to which chrysene was treated for 48 hours at the concentration that was determined in Example <1-2>. Total RNA was extracted from the cells using trizol reagent (Invitrogen life technologies, USA) according to the manufacturer's instruction and the extracted RNA was purified by using RNeasy mini kit (Qiagen, USA). The genomic DNA was eliminated during the purification of RNA using RNase-free DNase set (Qiagen, USA). The total RNA was quantified by spectrophotometer and purity was measured by Agilent 2100 Bioanalyzer (Agilent Technologies, USA) and agarose gel-electrophoration.
For oligo-microarray analysis, cDNA was synthesized using the total RNA extracted from the experimental group treated with chrysene obtained in Example <2-1>. 30 μg of the total RNA and 2 μg (1 μg/μl) of oligo (dT) primer were mixed, followed by reaction for 10 minutes at 65° C. Then, the reaction mixture was put in ice, followed by annealing. Reagents were mixed as shown in Table 1 for reverse transcription of the RNA.
The total RNA extracted from the control HepG2 cell line was labeled with Cy3-dUTP (green), while the RNA extracted from the experimental HepG2 cell line treated with chrysene was labeled with Cy5-dUTP (red). At this time, the two samples were mixed and purified by Microcon YM-30 column (Millipore, USA).
Hybridization and washing were performed according to the instruction of GeneoCheck Co., Ltd. Hybridization was performed in a 62° C. oven for 12 hours. At this time, 44 k whole human genome oligo microarray (Agilent, USA) was used as a DNA microarray chip. After washing (with 2×SSC/0.1% SDS for 2 minutes, with 1×SSC for 3 minutes, with 0.2×SSC for 2 minutes), the slide was centrifuged at 800 rpm for 3 minutes and dried.
Scanning of the hybridized images on the slide was performed by using Genepix 4000B (Axon Instruments, USA). Fluorescence images of the chip washed to eliminate non-binding genes were obtained by laser fluorescence scanner. At this time, green fluorescent images indicated the activity of the gene expressed in the control, whereas red fluorescent images indicated the activity of the gene expressed specifically in the experimental group. […] The scanned images were analyzed by GenePix 4.1 software (Axon Instruments, USA) to calculate the gene expression rate. Based on the obtained data, marker genes for chrysene were selected (see FIG. 2).

c1ccc2c(c1)ccc1c3ccccc3ccc21 [chrysene]
Ratio of intermediate value (ACHE (NM_015831)): 6.223 | Ratio of intermediate value (ADA (NM_000022)): 5.213 | Ratio of intermediate value (ADM (NM_001124)): 2.186 | Ratio of intermediate value (ADORA2B (AK172851)): 2.249 | Ratio of intermediate value (APOL2 (AF324224)): 2.105 | Ratio of intermediate value (APOL3 (NM_145641)): 3.196 | Ratio of intermediate value (AXL (NM_021913)): 3.268 | Ratio of intermediate value (B2M (NM_004048)): 2.006 | Ratio of intermediate value (BATF (BQ053419)): 2.221 | Ratio of intermediate value (BTG3 (BC011957)): 2.74 | Ratio of intermediate value (C1R (NM_001733)): 2.893 | Ratio of intermediate value (C1S (NM_001734)): 3.018 | Ratio of intermediate value (C4A (NM_001002029)): 2.002 | Ratio of intermediate value (C20orf139 (H18681)): 4.383 | Ratio of intermediate value (CCL3 (CR591007)): 3.347 | Ratio of intermediate value (CCL3L1 (BF662985)): 2.839 | Ratio of intermediate value (CCL14 (NM_004167)): 5.103 | Ratio of intermediate value (CCL20 (BC020698)): 2.199 | Ratio of intermediate value (CCL23 (NM_005064)): 2.761 | Ratio of intermediate value (CCND3 (AK096276)): 2.292 | Ratio of intermediate value (CD3D (NM_000732)): 54.94 | Ratio of intermediate value (CD9 (NM_001769)): 4.153 | Ratio of intermediate value (CD58 (NM_001779)): 2.794 | Ratio of intermediate value (CD79B (AK223210)): 15.33 | Ratio of intermediate value (CDKN2B (NM_078487)): 2.559 | Ratio of intermediate value (CSF1 (BC021117)): 4.788 | Ratio of intermediate value (CXCL12 (AK090482)): 2.842 | Ratio of intermediate value (DDX58 (NM_014314)): 2.333 | Ratio of intermediate value (DKFZp451C2311 (AL832451)): 2.639 | Ratio of intermediate value (DNAJA2 (AF116720)): 10.94 | Ratio of intermediate value (DNAJB2 (BC040494)): 2.053 | Ratio of intermediate value (DNAJB4 (AB209922)): 2.872 | Ratio of intermediate value (DUSP1 (AK127679)): 2.383 | Ratio of intermediate value (DUSP13 (NM_001007271)): 7.031 | Ratio of intermediate value (E2F7 (NM_203394)): 3.647 | Ratio of intermediate value (EBI3 (NM_005755)): 5.607 | Ratio of intermediate value (ELF4 (NM_001421)): 4.316 | Ratio of intermediate value (F2RL1 (NM_005242)): 2.258 | Ratio of intermediate value (F8 (NM_000132)): 2.415 | Ratio of intermediate value (FAM14A (NM_032036)): 2.706 | Ratio of intermediate value (FOS (BX647104)): 2.287 | Ratio of intermediate value (FOSL1 (NM_005438)): 5.643 | Ratio of intermediate value (GPX1 (NM_201397)): 2.85 | Ratio of intermediate value (GPX2 (BE512691)): 2.014 | Ratio of intermediate value (HLA-DOA (NM_002119)): 4.209 | Ratio of intermediate value (HRAS (NM_005343)): 2.3 | Ratio of intermediate value (HSPA4L (NM_014278)): 4.71 | Ratio of intermediate value (HSPA8 (NM_006597)): 2.313 | Ratio of intermediate value (HSPCA (AJ890082)): 2.544 | Ratio of intermediate value (ICOSLG (CB055213)): 3.644 | Ratio of intermediate value (IL4R (NM_000418)): 2.254 | Ratio of intermediate value (IL11 (NM_000641)): 4.521 | Ratio of intermediate value (ITCH (NM_031483)): 2.301 | Ratio of intermediate value (KLF6 (NM_001008490)): 2.3 | Ratio of intermediate value (KLRC3 (NM_002260)): 2.942 | Ratio of intermediate value (LIF (NM_002309)): 8.088 | Ratio of intermediate value (LY96 (BM918324)): 5.439 | Ratio of intermediate value (MAPK11 (BC027933)): 2.256 | Ratio of intermediate value (MAPK13 (AB209586)): 2.326 | Ratio of intermediate value (MBL2 (NM_000242)): 2.755 | Ratio of intermediate value (MGC3207 (AL834276)): 2.364 | Ratio of intermediate value (MR1 (AF031469)): 7.059 | Ratio of intermediate value (NALP6 (AY154461)): 2.392 | Ratio of intermediate value (NFKBIA (NM_020529)): 2.242 | Ratio of intermediate value (NINJ1 (NM_004148)): 2.107 | Ratio of intermediate value (NK4 (BF569086)): 3.138 | Ratio of intermediate value (NR3C1 (U25029)): 2.274 | Ratio of intermediate value (OAS1 (NM_016816)): 3.711 | Ratio of intermediate value (PAI, PAI1, PAI-1, PLANH1 (BX649164)): 29.05 | Ratio of intermediate value (PARD6B (BC060847)): 2.507 | Ratio of intermediate value (PARD6G (BC060797)): 3.502 | Ratio of intermediate value (PGF (NM_002632)): 2.436 | Ratio of intermediate value (PPM1D (NM_003620)): 3.647 | Ratio of intermediate value (PPP1R9B (BC008564)): 3.169 | Ratio of intermediate value (PRNP (NM_000311)): 2.313 | Ratio of intermediate value (PROCR (NM_006404)): 24.53 | Ratio of intermediate value (PTGES (AK127663)): 3.184 | Ratio of intermediate value (PTP4A1 (BC040303)): 3.183 | Ratio of intermediate value (RAE1 (AK097024)): 2.921 | Ratio of intermediate value (RPS6KA1 (BC014966)): 2.11 | Ratio of intermediate value (S100A6 (BM904612)): 5.938 | Ratio of intermediate value (SAA4 (BG564326)): 4.076 | Ratio of intermediate value (SASH1 (NM_015278)): 2.368 | Ratio of intermediate value (SEMA7A (AF069493)): 2.531 | Ratio of intermediate value (SERTAD1 (AK074652)): 4.835 | Ratio of intermediate value (SFN (BC023552)): 2.525 | Ratio of intermediate value (SGK2 (BC006523)): 4.65 | Ratio of intermediate value (STAT1 (NM_007315)): 2.268 | Ratio of intermediate value (TAP1 (BX648013)): 4.08 | Ratio of intermediate value (TAPBP (NM_172208)): 7.02 | Ratio of intermediate value (TGFA (NM_003236)): 2.487 | Ratio of intermediate value (TLR3 (BC068487)): 2.541 | Ratio of intermediate value (TMPRSS6 (NM_153609)): 2.118 | Ratio of intermediate value (TP53I11 (BC045666)): 6.008 | Ratio of intermediate value (TREM2 (NM_018965)): 43.67 | Ratio of intermediate value (TRIM22 (BC035582)): 13.79 | Ratio of intermediate value (VWF (NM_000552)): 2.476 | Ratio of intermediate value (XLKD1 (NM_006691)): 10.06 | Ratio of intermediate value (ZAP70 (AL832287)): 3.83 | Ratio of intermediate value (ZCSL2 (AK092040)): 2.303 | genes identified to be down-regulated (2.0 fold less) (out of 44,000 genes): 0.82% | genes identified to be up-regulated (2.0 fold higher) (out of 44,000 genes): 0.73% | number of genes identified to be down-regulated (out of 44,000 genes): 361 genes | number of genes identified to be up-regulated (out of 44,000 genes): 323 genes
